Entries after “also recorded” stand apart in the source; their conditions may differ.
Tests used:
[1] = test system: MOG-induced EAE GFAP-Luc/C57 mice; assay: Clinical neurologic scoring in MOG-induced monophasic EAE; type: in vivo, mouse; conditions: for clinical score compared to sham treated: 5 μg IV daily for 12 days from day 9, n=8 per group
Description: (§1) Methods. Animals. Male FVB/N-Tg (GFAP-luc+/−) mice (Xenogen Corp, Alameda, CA) were crossed with either albino C57BL/6J-Tyrc-2j or SJL/J mice purchased from Charles River Laboratories (Wilmington, MA). The FI offspring were genotyped by PCR following the manufacturer's protocol. Female mice between 8-10 weeks of age positive for GFAP (GFAP-luc/C57 or GFAP-Luc/SJL) expression were used.
Induction of EAE and clinical assessment of animals. Active EAE was induced according to a standard protocol (Smith M, et al. Brain Research 1983:264:241-53). Mice were immunized on Day 0 by subcutaneous injection on both sides of the tail base with 100 μL of an emulsion composed of either PLP139-151 or MOG35-55 peptide in an equal volume of Freund's adjuvant, supplemented with 4 mg/mL killed M. tuberculosis H37Ra (Difco Laboratories, Detroit, MI). The initial dose of antigen was 100 μg of PLP peptide for inducing relapsing EAE in SJL/J mice, or 200 μg of MOG peptide per C57BL/6 mouse for induction of acute monophasic EAE. GFAP-Luc/SJL/J mice received a second PLP antigen immunization on Day 7. Immediately following these immunizations, mice received intravenous (IV) injections of 200 ng Bordetella pertussis toxin diluted in 200 μL phosphate buffered saline (PBS) (List Biological Laboratories, Campbell, CA). […] Animals were weighed and assessed daily for clinical signs of EAE by two blinded independent observers during the acute phase of illness, and followed three times a week during the later chronic phase. The monophasic EAE MOG C57BL6 model was monitored for 28-30 days and the PLP SJL/J relapsing model was followed for nearly 6 months after immunization. The clinical scoring system used to quantify behavioral neurological deficits in the EAE mouse models (Table 2) was previously described (Aquino D, et al. Journal of Neurochemistry 1990:54:1398-404). […]
Statistical analysis. […] Bioluminescence was measured by the number of days where luminescence intensity in the spinal cord exceeded a threshold of 0.5 relative to the left ear. […]

GFAP-luc [2] = assay: GFAP-luc bioluminescence imaging (BLI) in MOG-induced EAE; type: in vivo, mouse
Description: (§2) Bioluminescence Imaging (BLI). Bioluminescent signals were quantified using the In Vivo Imaging System 100 (IVIS: Xenogen, Alameda, CA) with a cold Charged Coupled Device (CCD) camera mounted in a dark box. Three animals were imaged simultaneously. Mice received an IV injection of 1 mg/kg D-luciferin (Xenogen) 2-3 minutes prior to imaging and were immediately anesthetized with vaporized isoflurane for imaging. The imaging signal was quantified in units of photons per second per centimeter squared per steradian (photons/s·cm2/sr) using […] Version 3.1 (Xenogen) software and integrated over 2 minutes. For signal quantification, photons were obtained from a “region of interest” (ROI) that covered 2.18 cm2 of contiguous forebrain and 5.27 cm2 of spinal cord region. Bioluminescence was expressed as a ratio of the total photons value from the central nervous system ROI to the photon value obtained from an equal sized area over the left ear, used as an endogenous control. In the acute EAE model, measurements were typically taken every 1-2 days and the average of 2 consecutive days readings were used. Bioluminescence imaging was performed every other day after disease onset and twice weekly during the later chronic phase of the illness.
(§3) JM4 treatment. The JM4 peptide was first dissolved in distilled water to 2 mg/ml and stored at −80° C. Immediately before use, the peptide solution was further diluted to 5 μg/200 μl with PBS. […] The EAE mice were randomly divided into a JM4 treated and a sham treated group. The JM4 treated EAE animals (4-10 per group) were treated daily with IV JM4 250 μg/kg of the peptide in PBS for 10-12 days. Control EAE animals were sham-treated with IV saline for the same time period. To evaluate the treatment effects, mice underwent BLI examination as well as clinical and histopathologic evaluation.
(§4) Statistical analysis. Data is presented as the mean±SEM. Two tailed t-tests were used to compare JM4 effects on BLI and clinical scores. The long-term effects of JM4 were studied in the relapsing EAE model by using each subject's average clinical score from day 60 onward. Bioluminescence was measured by the number of days where luminescence intensity in the spinal cord exceeded a threshold of 0.5 relative to the left ear. Survival data was examined using a two-tailed log-rank test. Values of p<0.05 were considered significant.

[3] = test system: PLP-induced relapsing-remitting EAE GFAP-Luc/SJL mice; assay: Clinical scoring, relapse and survival in PLP-induced relapsing-remitting EAE; type: in vivo, mouse; conditions: for long term clinical scores compared to sham treated: for over five months, n=4 JM-4, n=5 sham, p<0.05 at day 60 onward
Description: as §1
Induction of EAE and clinical assessment of animals. […] Mice were immunized on Day 0 by subcutaneous injection on both sides of the tail base with 100 μL of an emulsion composed of either PLP139-151 or MOG35-55 peptide in an equal volume of Freund's adjuvant, supplemented with 4 mg/mL killed M. tuberculosis H37Ra (Difco Laboratories, Detroit, MI). The initial dose of antigen was 100 μg of PLP peptide for inducing relapsing EAE in SJL/J mice, or 200 μg of MOG peptide per C57BL/6 mouse for induction of acute monophasic EAE. GFAP-Luc/SJL/J mice received a second PLP antigen immunization on Day 7. Immediately following these immunizations, mice received intravenous (IV) injections of 200 ng Bordetella pertussis toxin diluted in 200 μL phosphate buffered saline (PBS) (List Biological Laboratories, Campbell, CA). The GFAP-Luc/C57BL mice received an additional IV injection of 200 ng Bordetella pertussis toxin on post-inoculation Day 2. Animals were weighed and assessed daily for clinical signs of EAE by two blinded independent observers during the acute phase of illness, and followed three times a week during the later chronic phase. The monophasic EAE MOG C57BL6 model was monitored for 28-30 days and the PLP SJL/J relapsing model was followed for nearly 6 months after immunization. The clinical scoring system used to quantify behavioral neurological deficits in the EAE mouse models (Table 2) was previously described (Aquino D, et al. Journal of Neurochemistry 1990:54:1398-404).
Immediately before use, the peptide solution was further diluted to 5 μg/200 μl with PBS. […] Control EAE animals were sham-treated with IV saline for the same time period. To evaluate the treatment effects, mice underwent BLI examination as well as clinical and histopathologic evaluation.
Statistical analysis. Data is presented as the mean±SEM. […] Bioluminescence was measured by the number of days where luminescence intensity in the spinal cord exceeded a threshold of 0.5 relative to the left ear. Survival data was examined using a two-tailed log-rank test. Values of p<0.05 were considered significant.

GFAP-luc [4] = assay: GFAP-luc bioluminescence imaging flare-ups in PLP-induced relapsing-remitting EAE; type: in vivo, mouse; conditions: for number of imaging flare ups / GFAP-luc expression compared to sham treated: relapsing-remitting EAE, brain or spinal cord
Description: as §2, §3, §4

[5] = test system: SJL/J relapsing-remitting EAE mice; assay: Spinal cord histopathology (Luxol fast blue, SMI-32, mouse IgG) in SJL/J relapsing-remitting EAE; type: in vivo
Description: Histopathology. To assess CNS inflammation and demyelination at different time points after immunization, EAE mice in the JM4 peptide-treated and sham-treated groups were anesthetized and perfused with ice-cold PBS, followed by 4% paraformaldehyde into the left ventricle. Spinal cords and brain were removed. Tissues were then embedded in paraffin, sectioned and stained with Luxol-Fast Blue/PAS to determine the extent of demyelination. Five-micron paraffin sections from the high cervical, thoracic and low lumbosacral region of the spinal cord were placed on the same slide. Each slide contained a control normal spinal cord section, a sham-treated EAE cord, and spinal cord sections from JM4 treated EAE animals. Histopathologic examination was performed in blinded fashion. In addition, SMI-32 anti-neurofilament H immunohistochemical staining was completed to assess acute axonal injury (Aquino D, et al. Journal of Neurochemistry 1990:54:1398-404). In brief, 5 μm sections were de-paraffinized, treated with antigen-retrieving solution, and blocked with normal horse serum to minimize nonspecific binding. The sections were first incubated with mouse SMI-32 antibody (Sternberger Monoclonals, Lutherville, MD) diluted 1:5,000 in PBS overnight at 4° C. After two 5-minute PBS washes, the sections were incubated with biotinylated horse anti-mouse IgG (Vector Labs, Burlingame, CA), and then by horseradish peroxidase (HRP)-avidin complex (Vector Labs) for 30 minutes each. Immunostaining was visualized by reacting the sections with diaminobenzidine tetrahydrochloride (Stable DAB: Invitrogen) for 1 to 3 minutes. Excess DAB was removed by washing with distilled water and the slides were evaluated using light microscopy.

complement component C3 = assay: C3/GFAP immunohistochemistry for A1 astrocyte activation in spinal cord of MOG EAE mice; type: in vivo, mouse
Description: Spinal cord (cut into 6-7 equal pieces from cervical to sacral) was frozen and serially cut at 8 μm-thick cross sections and collected on slides, then post-fixed in acetone at −20° C. for 10 min. Sections were first treated with Target Unmasking Fluid (Pan Path) at 90° C. for 10 min, and blocked in 2% normal horse serum for 10 min. Sections were incubated overnight at 4° C. with either monoclonal rat anti-mouse C3 complement (Abcam, AB11862) at 1:50 or polyclonal rabbit anti-mouse GFAP (Dako Z0334GFAP) at 1:500. The next day sections were washed in PBS three times for 10 min each and incubated with cy3 or cy2 conjugated goat anti-mouse/rat/rabbit IgG (Jackson ImmunResearch) at 1:120 working dilution for 1 hour. Sections were washed in dH2O three times for 10 min each, followed by fluorescence microscopy imaging.
Immunohistochemistry images were obtained using an Olympus BX41 fluorescent microscope (Center Valley, PA, USA) fitted with ProgRes MF cool digital camera using 4× or 10× objectives. Half of each section from different spinal levels was quantified by measuring the percent area in the structure where label exceeded a constant threshold value using Image Pro 4.0 image analysis software (BD Biosciences, Franklin Lakes, NJ).
as §4

[6] = Hematopoietic and other side effects; conditions: acute MOG and relapsing-remitting PLP SJL/J EAE models
EAE mice = conditions: cited from earlier work
[7] = symptomatic EAE mice, literature; cited from earlier work

## GCAEHCSLNENITVPDTKV [JM-4]
[1]
  clinical score compared to sham treated: significantly lower
[1]; listed as JM4
  clinical score compared to sham treated: significant reduction in clinical score
[1]; JM4 250 μg/kg IV for 12 days starting day 9 post-immunization, score scale 0-6 (Table 2), sham 3.7±0.4, p<0.05
  maximum mean clinical score: 2.25±0.3
GFAP-luc [2]; 5 μg IV daily for 12 days from day 9, n=8, p<0.05
  peak bioluminescent values in forebrain and spinal cord compared to sham treated: significantly lower
GFAP-luc [2]; FIG. 3A, treatment started day 9
  spinal cord bioluminescence signal after start of treatment, single imaged animal: virtual absence of spinal cord signal by day 4
GFAP-luc [2]; MOG EAE
  GFAP-luc signal returned to baseline earlier than sham-treated group: 3 to 4 days
GFAP-luc [2]; at days 11 to 12
  reduction of bioluminescence from peak disease scores compared with sham animals: 3-4 fold
[3]; acute phase of the disease
  clinical deficit improved earlier than sham-treated animals: 7 days
[3]; at 100 days, Kaplan-Meier, sham 50%
  survival: 100%
[3]; for 130 days, 12-day course IV 5 μg/day from day 9, sham around 2
  average clinical score: under 1
[3]
  long term clinical scores compared to sham treated: remarkably reduced
[3]; listed as JM4
  long term clinical scores compared to sham treated: significantly lower
[3]; throughout the 5-month experiment, sham 20%
  animals remaining relapse-free by clinical scoring: 50%
GFAP-luc [4]; 5 μg IV daily for 12 days, n=8 JM-4, n=7 sham, sham 10.29+/−2.447, p<0.05
  number of spinal cord bioluminescence flare ups (mean+/−SEM): 4.0+/−1.018
GFAP-luc [4]; chronic remitting-relapsing EAE
  average daily intensity of the bioluminescent signal versus sham-treated: not significantly different
GFAP-luc [4]
  number of imaging flare ups / GFAP-luc expression compared to sham treated: substantially less; also recorded: significantly decreased
GFAP-luc [4]; listed as JM4
  number of imaging flare ups / GFAP-luc expression compared to sham treated: significantly decreased
[5]; Luxol fast blue, ventral white matter
  spinal cord demyelination and axonal injury: protective against spinal cord demyelination and axonal injury
[5]; mouse, in vivo
  number of injured axons (SMI-32) rimming the ventral spinal cord versus sham: large reduction in number of injured axons
[5]; versus saline treated EAE
  IgG immunoreactivity in spinal cord (blood-brain barrier breakdown): profoundly reduced
Complement component C3; 24 days post immunization, JM4 250 μg/kg IV 12 days from day 9, n=7 per group, EAE 17.5+/−3.7, p<0.05
  C3 expression in spinal cord: 8.3+/−1.9
Complement component C3; EAE mice
  attenuation of A1 astrocyte activation: over 50%
Complement component C3; spinal cord
  C3 / A1 astrocyte immunoreactivity versus untreated EAE: massive reduction of C3 positive A1 astrocytes; also recorded: significant decrease in C3 immunoreactivity
[6]
  hematogenic side effects: without the negative hematogenic side effects
EAE mice; EAE mice
  decrease of dendritic cells: ten-fold
  mononuclear cells count: reduced elevated mononuclear cells count to normal
  proinflammatory cytokines including IL-2, IL-6, TNF-alpha and INF-gamma: decreased proinflammatory cytokines
EAE mice; SJL/J EAE mice
  T helper Th 17 positive cells: reduce T helper Th 17 positive cells
  Treg cells: expand Treg cells
EAE mice; symptomatic EAE mice, literature
  tissue protective properties: robust EPO-like tissue protective properties
[7]
  erythropoietic activity: without the activities responsible for excessive erythropoiesis

Source: patent publication US20240207361A1, “ERYTHROPOIETIN-DERIVED PEPTIDES FOR TREATING RELAPSING-REMITTING MULTIPLE SCLEROSIS” (The United States Government as represented by the …, priority 2021, published 2024)
